In publication PMC6017325, “Cell Penetrating Capacity and Internalization Mechanisms Used by the Synthetic Peptide CIGB-552 and Its Relationship with Tumor Cell Line Sensitivity” (Molecules : A Journal of Synthetic Chemistry and Natural …, 2018):

What was measured:
H460 [1] = assay: Internalization assay, flow cytometry, H460; type: cell-based, human; settings: FITC-conjugated CIGB-552 5 and 50 μM, 1 h
Description: (§1) Cells were seeded in 12-well plates (1 × 10^5 cells/well) and cultured in either D-MEM or RPMI supplemented with Glutamax, 10% (v/v) FBS, at 37 °C for 24 h. For those samples where internalization was analyzed by microscopy, round coverslips were placed into the wells prior to cell seeding. Subsequently, FITC-conjugated CIGB-552, was added to the cells to a final concentration of 5 μM or 50 μM and was incubated for 1 h at either 4 °C or 37 °C. For flow cytometry readout, culture medium was removed, cells were washed using phosphate-buffered saline (PBS) and surface-bound FITC-peptide was quenched with 0.4% (w/v) Trypan Blue solution. Cells were trypsinized and samples were acquired using Cyan ADP Flow Cytometer equipped with a 488 nm laser and a FL1 emission filter (530/40 nm). For data acquisition and analysis Summit v4.3 (Beckman Coulter, Fullerton, CA, USA) and FlowJo v.7.6.5 software (BD, Ashland, OR, USA) were used. For microscopy assays, cells were fixed in 4% (w/v) paraformaldehyde (PFA) for 15min, permeabilized using 0.2% (v/v) Tween 20 solution in PBS, and nuclei were stained using TOPRO-3 (1 μM, Life Technologies) and CellMask^TM membrane marker (1:2000, Life Technologies).
Data was expressed as the mean ± Standard Deviation of triplicates of one representative experiment, three independent experiments were executed. Statistic calculations were performed using Statistica software (STATSOFT, Hamburg, Germany). Differences were considered statistically significant when p < 0.05 using Mann-Whitney U Test.

HT-29 [2] = assay: Internalization assay, flow cytometry, HT-29; type: cell-based, human; settings: FITC-conjugated CIGB-552 5 and 50 μM, 1 h
Description: as §1
(§2) Data was expressed as the mean ± Standard Deviation of triplicates of one representative experiment, three independent experiments were executed. […]

MCF-7 [3] = assay: Internalization assay, flow cytometry, MCF-7; type: cell-based, human; settings: FITC-conjugated CIGB-552 5 and 50 μM, 1 h
Description: as §1, §2

H460 [4] = settings: H460 cell line; read-out: cytotoxicity, IC50 value; cited from earlier work
Description: Table 1 CIGB-552 cytotoxicity in H460, HT-29 and MCF-7 cell lines (expressed by the IC50 value in μM); D-amino acids are indicated in small and italic characters. | column: H460

HT-29 [5] = settings: HT-29 cell line; read-out: cytotoxicity, IC50 value; cited from earlier work
Description: Table 1 CIGB-552 cytotoxicity in H460, HT-29 and MCF-7 cell lines (expressed by the IC50 value in μM); D-amino acids are indicated in small and italic characters. | column: HT-29

MCF-7 [6] = settings: MCF-7 cell line; read-out: cytotoxicity, IC50 value; cited from earlier work
Description: Table 1 CIGB-552 cytotoxicity in H460, HT-29 and MCF-7 cell lines (expressed by the IC50 value in μM); D-amino acids are indicated in small and italic characters. | column: MCF-7

COMMD1 protein = biological target: T1, COMMD1 protein (Homo sapiens, UniProt Q8N668); assay: Protein complementation assay (PCA), Venus; type: cell-based; settings: MCF-7 and H460 cells co-transfected with Venus 1 / Venus 2 plasmids containing COMMD1 or L2; confocal microscopy
T1 construct: Venus fragment (Venus 1 or Venus 2); expressed in transfected cells; host or cells: MCF-7 and H460 cells, co-transfected with pCDNA3.1 Venus 1 / Venus 2 plasmids using Lipofectamine 2000
T1 sequence (Q8N668 whole entry, the tested form may be a part): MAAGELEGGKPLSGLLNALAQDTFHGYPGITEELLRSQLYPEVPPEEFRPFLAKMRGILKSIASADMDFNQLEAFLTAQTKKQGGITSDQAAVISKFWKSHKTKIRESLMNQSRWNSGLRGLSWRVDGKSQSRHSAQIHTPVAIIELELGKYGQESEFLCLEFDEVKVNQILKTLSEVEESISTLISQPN
Description: L2 peptide, which was chemically modified in its primary structure to generate the CIGB-552, was used for the protein complementation assay. Cells were seeded in 12-well plates containing round coverslips (1 × 10^5 cells/well) and cultured in either DMEM or RPMI supplemented with Glutamax, 10% (v/v) FBS, at 37 °C for 24 h. Cells were co-transfected with the plasmids pCDNA3.1 Venus 1 and pCDNA3.1 Venus 2 each one containing either COMMD1 protein or L2 peptide. Transfection was performed with Lipofectamine 2000 (Thermo Fisher, Waltham, MA, USA) using a ratio of 1:2 DNA:lipofectamine ([…]). […]
All images were taken using laser confocal microscope Leica TCS SP5 equipped with a 63X NA 1.42 oil immersion objective (Leica Microsystems, Wetzlar, Germany). […] Quantification of the number of fully loaded cells was performed using 10 single optical sections for each cell line by using the Manual Counting plugin provided in Icy 1.9.5.1v imaging software. In order to assess fluorescence intensity both in cytoplasm and nuclei, images were taken in identical conditions (laser power, photomultiplier voltage, line and frame average and zoom) for all cell lines and 10 single optical sections were used for the analysis. […]

[7] = MFI at 4 °C referred to MFI at 37 °C

| Substance | temperature effect on internalization (H460 [1]; 4 °C versus 37 °C) | internalization levels (median fluorescent intensity, MFI) (H460 [1]; 37 °C, surface-bound peptide quenched with 0.4% Trypan Blue) | contribution of the transduction mechanism to internalization (H460 [1]; [7]) | temperature effect on internalization (HT-29 [2]; 4 °C versus 37 °C) | contribution of the transduction mechanism to internalization (HT-29 [2]; [7]) | temperature effect on internalization (MCF-7 [3]; 4 °C versus 37 °C) | contribution of the transduction mechanism to internalization (MCF-7 [3]; [7]) | IC50 (H460 [4]) [µM] | IC50 (HT-29 [5]) [µM] | IC50 (MCF-7 [6]) [µM] | in situ interaction with COMMD1 (fluorescence emission of Venus protein) (COMMD1 protein) |
| --- | --- | --- | --- | --- | --- | --- | --- | --- | --- | --- | --- |
| Ac-HARIKpTFRRlKWKYKGKFW [CIGB-552, twenty-amino-acid novel synthetic peptide, AMP-derived, cell penetrating, pro-apoptotic through COMMD1] | higher reduction in internalization levels | highest internalization levels | less than 50% | higher reduction in internalization levels | less than 50% | reduction in the internalization | more than 50% | 23 ± 8 | 166 ± 66 | 338 ± 39 |  |
| HARIKPTFRRLKWKYKGKFW [L2] |  |  |  |  |  |  |  |  |  |  | likely to interact |
